Assay results published in patent publication US9216980B2, “Methods of use of diazacarbazoles for treating cancer” (Genentech, Inc., priority 2008, dated 2015).

These molecules were tested on HT-29 (assay: Cellular assay (checkpoint abrogation), phospho-Histone H3). Settings: Homo sapiens; HT-29 cells, 20 nM SN-38 for 16 h, then 300 nM nocodazole plus compound for 24 h; phospho-Histone H3 levels; read-out: EC50 in the assay described in EXAMPLE ii.
Format: cell-based
Method: Compounds are tested in a cellular assay using the human colorectal adenocarcinoma derived cell line HT-29 (ATCC HTB-38).
The cell line is maintained in DMEM/F12 (1:1) media (Invitrogen Gibco, #31331) supplemented with 10% FCS at 37° C. in a 5% CO2 humidified incubator.
Cells are seeded in 96-well plates at 30,000 cells/well and after 24 h they are exposed to 20 nM SN-38 in 0.4% DMSO. One column of 8 wells on each plate was used to generate a maximum signal control. These cells are treated with 0.4% DMSO without SN-38. Cells are grown for a further 16 h, then the media containing DMSO plus or minus SN-38 is removed and replaced with media containing 300 nM nocodazole alone (to determine baseline) or in combination with ten concentrations of chk1 inhibitor (final DMSO concentration is 0.4%). Cells are grown for a further 24 h. The media is removed and replaced with 50 μl lysis buffer containing protease inhibitors and phosphatase inhibitors. This buffer contains detergent to bring about cellular disruption. […] Following the transfer of lysate to the MSD plate, Histone H3 in the lysate is captured on the coated antibody by incubation at room temperature for 2 h. Following the capture step the plate is washed and then incubated with an antibody to phosphorylated Histone H3 which is conjugated with a Sulfo-Tag. This tag gives a signal when in proximity to the electrode on the base of the MSD plate. Binding the tagged antibody to the captured protein allow detection on a MSD reader.
EC50 values are calculated using the XLfit software package (version 2.0.5) or Graphpad Prism, (version 3.03) fitting a sigmoidal curve with a variable slope.

EC50, < 10 µM:
CN1CCC(c2ccc(-c3cnc4[nH]c5cnc(C#N)cc5c4c3)cc2)CC1 [Example 1, 3-[4-(1-Methyl-piperidin-4-yl)-phenyl]-9H-dipyrido[2,3-b;4′,3′-d]pyrrole-6-carbonitrile]
Cn1ccc(-c2cnc3[nH]c4cnc(C#N)cc4c3c2)n1 [Example 80, 3-(1-Methyl-1H-pyrazol-3-yl)-9H-dipyrido[2,3-b;4′,3′-d]pyrrole-6-carbonitrile]
N#Cc1cc2c(cn1)[nH]c1ncc(C#CC3CCCNC3)cc12 (centres unmarked) [Example 119, 3-Piperidin-3-ylethynyl-9H-dipyrido[2,3-b;4′,3′-d]pyrrole-6-carbonitrile]
CN1CCN(c2ccc(-c3cnc4[nH]c5cnc(C#N)cc5c4c3)cc2)CC1 [Example 125, 3-[4-(4-Methyl-piperazin-1-yl)-phenyl]-9H-dipyrido[2,3-b;4′,3′-d]pyrrole-6-carbonitrile]
N#Cc1cc2c(cn1)[nH]c1ncc(-c3cnn(CCN4CCOCC4)c3)cc12 [Example 127, 3-[1-(2-Morpholin-4-yl-ethyl)-1H-pyrazol-4-yl]-9H-dipyrido[2,3-b;4′,3′-d]pyrrole-6-carbonitrile]
CC(C)Oc1ccc(-c2cnc3[nH]c4cnc(C#N)cc4c3c2)cc1 [Example 135, 3-(4-Isopropoxy-phenyl)-9H-dipyrido[2,3-b;4′,3′-d]pyrrole-6-carbonitrile]
CC(=O)Nc1cccc(-c2cnc3[nH]c4cnc(C#N)cc4c3c2)c1 [Example 138, N-[3-(6-Cyano-9H-dipyrido[2,3-b;4′,3′-d]pyrrol-3-yl)-phenyl]-acetamide]
N#Cc1cc2c(cn1)[nH]c1ncc(-c3ccc(CO)cc3)cc12 [Example 157, 3-(4-Hydroxymethyl-phenyl)-9H-dipyrido[2,3-b;4′,3′-d]pyrrole-6-carbonitrile]
N#Cc1cc2c(cn1)[nH]c1ncc(-c3cccs3)cc12 [Example 160, 3-Thiophen-2-yl-9H-dipyrido[2,3-b;4′,3′-d]pyrrole-6-carbonitrile]
N#Cc1cc2c(cn1)[nH]c1ncc(-c3cccc(N)c3)cc12 [Example 166, 3-(3-Amino-phenyl)-9H-dipyrido[2,3-b;4′,3′-d]pyrrole-6-carbonitrile]
COc1ccc(-c2cnc3[nH]c4cnc(C#N)cc4c3c2)cc1OC [Example 176, 9H-dipyrido[2,3-b;4′,3′-d]pyrrole-6-carbonitrile]
CC(=O)Nc1ccc(-c2cnc3[nH]c4cnc(C#N)cc4c3c2)cc1 [Example 186, N-[4-(6-Cyano-9H-dipyrido[2,3-b;4′,3′-d]pyrrol-3-yl)-phenyl]-acetamide]
CS(=O)(=O)c1cccc(-c2cnc3[nH]c4cnc(C#N)cc4c3c2)c1 [Example 188, 3-(3-Methanesulfonyl-phenyl)-9H-dipyrido[2,3-b;4′,3′-d]pyrrole-6-carbonitrile]
CN(C)S(=O)(=O)c1cccc(-c2cnc3[nH]c4cnc(C#N)cc4c3c2)c1 [Example 190, 3-(6-Cyano-9H-dipyrido[2,3-b;4′,3′-d]pyrrol-3-yl)-N,N-dimethyl-benzenesulfonamide]
N#Cc1cc2c(cn1)[nH]c1ncc(Cl)cc12 [Example 214, 3-Chloro-9H-dipyrido[2,3-b;4′,3′-d]pyrrole-6-carbonitrile]
c1cn(-c2cc3c(cn2)[nH]c2ncc(-c4ccc(CN5CCCCC5)cc4)cc23)cn1 [Example 366, 3-(4-Piperidin-1-ylmethyl-phenyl)-6-(1H-imidazol-1-yl)-9H-dipyrido[2,3-b;4′,3′-d]pyrrole]
Cn1nncc1-c1cc2c(cn1)[nH]c1ncc(-c3ccc(CN4CCCCC4)cc3)cc12 [Example 368, 6-(1-Methyl-1H-1,2,3-triazol-5-yl)-3-(4-piperidin-1-ylmethyl-phenyl)-9H-dipyrido[2,3-b;4′,3′-d]pyrrole]
